{"source": "patent US20230241150A1", "about": "“Compositions and Uses Thereof” (Natur-Tech Pharmacal Co., Ltd, priority 2020, published 2023)", "key": {"[1]": {"tested_on": "PTZ-induced epileptic mice", "assay": "PTZ-induced epilepsy in mice: seizure stage (Racine scale), convulsions, mortality", "type": "in vivo, ICR mice", "conditions": "carbamazepine 80 mg/kg intragastric daily 7 days; PTZ 80 mg/kg i.p.; n=12", "from_the_text": "As known to those skilled in the art, pentylenetetrazole (PTZ) is a powerful seizure-inducing agent, and its epileptic model is considered to be one of the ideal models for systemic tonic seizures. PTZ itself has no special neurotoxicity, so it is widely used in the study of epilepsy pathogenesis and the screening of anti-epileptic drugs. When PTZ induces epilepsy in mice, its seizures are characterized by clonic seizures in the initial stage, followed by systemic tonic seizures soon afterwards. PTZ is a central nervous system stimulant that acts on GABA-GABAA receptor system. It promotes the enhancement of the excitatory synaptic facilitation and reduces the release of GABA. This in turn reduces the inhibitory ability, increases the sensitivity to convulsions, and increases the excitability of the central nervous system, thereby inducing EP. According to its seizure characteristics, in this experiment, these two seizure forms were used as indicators and combined with the current Racine scale to analyze their epileptic behavior.\n(§1) The mice in each group were given intragastric administration daily, for 7 consecutive days. 30 minutes after the last administration, except for the blank control group, the mice in the other groups were injected intraperitoneally with 80 mg/kg of PTZ to induce convulsions in the mice. Each mouse was placed in a separate cage for observation for 30 minutes, and behavioral changes such as stages of seizure, duration, latent period and mortality rate of the mice were recorded.\nThe Racine scale (see: https://en.wikipedia.org/wiki/Racine_stages) was used to determine the level of epilepsy in mice: • Stage 0: No response; • Stage I: Wet dog shakes, facial twitches, clonus, tremors (such as eye blinking, moustache movements, rhythmic chewing, etc.); • Stage II: Stage I plus rhythmic nodding; • Stage III: Stage II plus forelimb clonus, but no rearing; • Stage IV: Rearing and oblique bilateral falling, or rearing with forelimb clonus; and • Stage V: Imbalance, tipping, twitching of limbs, generalized clonus, generalized tonic seizures, falling, rolling, and loss of postural control."}, "brain of convulsive mice": {"tested_on": "brain of convulsive mice", "type": "in vivo, ICR mice", "conditions": "carbamazepine 80 mg/kg intragastric daily 7 days; PTZ 80 mg/kg i.p.; n=12", "procedure": "as §1\nAfter completing the behavioral observation determined by the above relevant indicators, experiments were conducted to study the effect of the composition on the contents of NO, Na-K-ATP, Asp, and 5-HT in the brain of convulsive mice. After the behavioral observation was over, the mice were immediately executed, and the brain tissues and the required organs were quickly taken out, weighed, and then the brain tissues were placed in liquid nitrogen and stored in a refrigerator at -80° C. Blood stains on the surface were washed off with pre-cooled saline before measurement. The tissues were then weighed and PBS was added in a volume ratio of 1:9 to fully homogenize the brain tissues. The homogenate was centrifuged at 3000 r/min for 20 minutes. The supernatant was collected as samples for subsequent ELISA test to detect the content of GABA, Glu, NO, Na^+-K^+-ATP, Asp, 5-HT, etc."}}, "note": "Marks after values point to notes of the source that are not given here."}
{"smiles": "NC(=O)N1c2ccccc2C=Cc2ccccc21", "note": "[Carbamazepine]", "values": [{"measurement": "Duration of convulsions", "setting": "[1]", "value": "165.3 ± 32.5", "unit": "s"}, {"measurement": "Latent period of convulsions", "setting": "[1]", "value": "365.2 ± 25.6", "unit": "s"}, {"measurement": "Morality rates", "setting": "[1]", "value": 16.7, "unit": "%"}, {"measurement": "Number of convulsions", "setting": "[1]", "value": 8}, {"measurement": "number of seizures, Stage I", "setting": "[1]", "value": "0.9±0.4"}, {"measurement": "number of seizures, Stage II", "setting": "[1]", "value": "1.4±0.8"}, {"measurement": "number of seizures, Stage III", "setting": "[1]", "value": "1.5±0.8"}, {"measurement": "number of seizures, Stage IV", "setting": "[1]", "value": "2.1±1.8"}, {"measurement": "number of seizures, Stage V", "setting": "[1]", "value": "6.3±2.1"}, {"measurement": "seizure behavior: number of mice at Stage 0", "setting": "[1]", "value": 1}, {"measurement": "seizure behavior: number of mice at Stage I", "setting": "[1]", "value": 3}, {"measurement": "seizure behavior: number of mice at Stage II", "setting": "[1]", "value": 3}, {"measurement": "seizure behavior: number of mice at Stage III", "setting": "[1]", "value": 2}, {"measurement": "seizure behavior: number of mice at Stage IV", "setting": "[1]", "value": 2}, {"measurement": "seizure behavior: number of mice at Stage V", "setting": "[1]", "value": "1*"}, {"measurement": "5-HT content in the brain", "setting": "brain of convulsive mice", "value": "14.6 ± 2.6", "unit": "ng/L"}, {"measurement": "NO content in the brain", "setting": "brain of convulsive mice", "value": "26.4 ± 2.5", "unit": "µmol/L"}, {"measurement": "Na-K-ATP content in the brain", "setting": "brain of convulsive mice", "value": "192.1 ± 5.7", "unit": "ng/L"}]}
